According to patent US10894793B2, “Bicyclic pyridine, pyrazine, and pyrimidine derivatives as PI3K beta inhibitors” (Janssen Pharmaceutica NV, priority 2016, dated 2021):

Columns and labels:
PIK3Cβ_h = target: T1, PIK3Cβ_h (Homo sapiens, UniProt P42338); experiment: Enzyme binding assay (KINOMEscan); conditions: DiscoveRx
T1 construct: purchased DiscoveRx Corporation
Description: (§1) Enzyme Binding Assays (KINOMEscan®)
(§2) Kinase enzyme binding affinities of compounds disclosed herein were determined using the KINOMEscan technology performed by DiscoveRx Corporation, San Diego, Calif., USA (www.kinomescan.com). Table A reports the obtained Kd values (nM), with the Kd being the inhibitor binding constant: […]

MTOR_h = target: T2, MTOR_h (Homo sapiens, UniProt P42345); experiment: Enzyme binding assay (KINOMEscan); conditions: DiscoveRx
T2 construct: purchased DiscoveRx Corporation
Description: as §1, §2

PIK3Cδ_h = target: T3, PIK3Cδ_h (Homo sapiens, UniProt O00329); experiment: Enzyme binding assay (KINOMEscan); conditions: DiscoveRx
T3 construct: purchased DiscoveRx Corporation
T3 sequence (O00329 1-1044): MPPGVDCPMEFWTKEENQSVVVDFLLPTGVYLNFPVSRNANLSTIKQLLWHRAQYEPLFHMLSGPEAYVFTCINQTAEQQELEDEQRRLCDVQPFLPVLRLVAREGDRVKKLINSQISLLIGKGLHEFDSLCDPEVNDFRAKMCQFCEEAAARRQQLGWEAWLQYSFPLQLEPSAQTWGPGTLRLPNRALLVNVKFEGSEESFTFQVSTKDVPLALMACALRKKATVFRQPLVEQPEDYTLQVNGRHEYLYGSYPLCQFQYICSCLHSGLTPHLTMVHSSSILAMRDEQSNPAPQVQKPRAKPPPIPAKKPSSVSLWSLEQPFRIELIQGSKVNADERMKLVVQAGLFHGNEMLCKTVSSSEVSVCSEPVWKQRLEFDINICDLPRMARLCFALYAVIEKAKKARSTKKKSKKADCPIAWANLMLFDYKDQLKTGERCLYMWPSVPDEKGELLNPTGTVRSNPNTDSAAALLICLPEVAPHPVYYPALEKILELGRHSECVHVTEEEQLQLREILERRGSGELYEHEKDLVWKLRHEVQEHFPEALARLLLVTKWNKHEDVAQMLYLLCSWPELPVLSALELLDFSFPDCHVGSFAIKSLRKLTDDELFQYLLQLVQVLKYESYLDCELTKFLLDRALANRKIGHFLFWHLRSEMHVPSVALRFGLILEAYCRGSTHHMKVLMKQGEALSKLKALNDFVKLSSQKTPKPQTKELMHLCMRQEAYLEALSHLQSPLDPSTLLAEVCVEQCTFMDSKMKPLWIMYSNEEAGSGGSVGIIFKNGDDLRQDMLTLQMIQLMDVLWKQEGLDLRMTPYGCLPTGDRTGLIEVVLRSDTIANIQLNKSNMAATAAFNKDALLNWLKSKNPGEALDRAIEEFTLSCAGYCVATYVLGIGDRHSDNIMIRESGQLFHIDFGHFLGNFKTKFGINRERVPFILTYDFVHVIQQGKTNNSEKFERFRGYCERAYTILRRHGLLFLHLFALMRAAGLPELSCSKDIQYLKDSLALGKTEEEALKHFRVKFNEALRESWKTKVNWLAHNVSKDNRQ
Description: as §1, §2

PIK3Cα_h = target: T4, PIK3Cα_h (Homo sapiens, UniProt P42336); experiment: Enzyme binding assay (KINOMEscan); conditions: DiscoveRx
T4 construct: purchased DiscoveRx Corporation
T4 sequence (P42336 whole entry): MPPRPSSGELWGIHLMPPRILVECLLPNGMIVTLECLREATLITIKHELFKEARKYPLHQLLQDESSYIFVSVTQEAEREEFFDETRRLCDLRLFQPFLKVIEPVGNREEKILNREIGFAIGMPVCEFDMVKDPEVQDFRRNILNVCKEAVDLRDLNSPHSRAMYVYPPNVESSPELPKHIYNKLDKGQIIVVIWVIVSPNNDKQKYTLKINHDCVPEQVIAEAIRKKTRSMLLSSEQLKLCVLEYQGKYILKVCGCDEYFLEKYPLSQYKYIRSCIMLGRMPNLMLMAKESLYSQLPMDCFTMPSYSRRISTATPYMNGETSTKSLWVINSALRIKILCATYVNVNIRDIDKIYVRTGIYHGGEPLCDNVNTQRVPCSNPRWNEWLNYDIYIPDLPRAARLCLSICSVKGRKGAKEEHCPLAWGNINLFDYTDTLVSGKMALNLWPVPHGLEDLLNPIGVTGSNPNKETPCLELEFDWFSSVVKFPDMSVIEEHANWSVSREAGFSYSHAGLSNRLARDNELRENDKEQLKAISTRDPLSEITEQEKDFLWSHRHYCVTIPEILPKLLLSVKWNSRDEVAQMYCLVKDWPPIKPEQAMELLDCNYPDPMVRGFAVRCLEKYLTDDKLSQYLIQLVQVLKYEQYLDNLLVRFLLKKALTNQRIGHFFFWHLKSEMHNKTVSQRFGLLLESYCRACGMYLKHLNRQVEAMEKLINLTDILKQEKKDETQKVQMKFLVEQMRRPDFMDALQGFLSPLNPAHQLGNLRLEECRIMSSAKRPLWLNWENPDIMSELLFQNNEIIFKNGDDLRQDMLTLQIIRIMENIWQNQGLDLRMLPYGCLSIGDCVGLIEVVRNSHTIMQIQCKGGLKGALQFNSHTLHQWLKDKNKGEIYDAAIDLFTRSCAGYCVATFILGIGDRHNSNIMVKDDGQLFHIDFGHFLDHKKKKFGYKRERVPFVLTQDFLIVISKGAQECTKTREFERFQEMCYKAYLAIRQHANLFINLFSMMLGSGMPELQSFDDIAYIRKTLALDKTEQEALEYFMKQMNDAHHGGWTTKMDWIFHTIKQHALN
Description: as §1, §2

PIK3Cγ_h = target: T5, PIK3Cγ_h (Homo sapiens, UniProt P48736); experiment: Enzyme binding assay (KINOMEscan); conditions: DiscoveRx
T5 construct: purchased DiscoveRx Corporation
T5 sequence (P48736 whole entry): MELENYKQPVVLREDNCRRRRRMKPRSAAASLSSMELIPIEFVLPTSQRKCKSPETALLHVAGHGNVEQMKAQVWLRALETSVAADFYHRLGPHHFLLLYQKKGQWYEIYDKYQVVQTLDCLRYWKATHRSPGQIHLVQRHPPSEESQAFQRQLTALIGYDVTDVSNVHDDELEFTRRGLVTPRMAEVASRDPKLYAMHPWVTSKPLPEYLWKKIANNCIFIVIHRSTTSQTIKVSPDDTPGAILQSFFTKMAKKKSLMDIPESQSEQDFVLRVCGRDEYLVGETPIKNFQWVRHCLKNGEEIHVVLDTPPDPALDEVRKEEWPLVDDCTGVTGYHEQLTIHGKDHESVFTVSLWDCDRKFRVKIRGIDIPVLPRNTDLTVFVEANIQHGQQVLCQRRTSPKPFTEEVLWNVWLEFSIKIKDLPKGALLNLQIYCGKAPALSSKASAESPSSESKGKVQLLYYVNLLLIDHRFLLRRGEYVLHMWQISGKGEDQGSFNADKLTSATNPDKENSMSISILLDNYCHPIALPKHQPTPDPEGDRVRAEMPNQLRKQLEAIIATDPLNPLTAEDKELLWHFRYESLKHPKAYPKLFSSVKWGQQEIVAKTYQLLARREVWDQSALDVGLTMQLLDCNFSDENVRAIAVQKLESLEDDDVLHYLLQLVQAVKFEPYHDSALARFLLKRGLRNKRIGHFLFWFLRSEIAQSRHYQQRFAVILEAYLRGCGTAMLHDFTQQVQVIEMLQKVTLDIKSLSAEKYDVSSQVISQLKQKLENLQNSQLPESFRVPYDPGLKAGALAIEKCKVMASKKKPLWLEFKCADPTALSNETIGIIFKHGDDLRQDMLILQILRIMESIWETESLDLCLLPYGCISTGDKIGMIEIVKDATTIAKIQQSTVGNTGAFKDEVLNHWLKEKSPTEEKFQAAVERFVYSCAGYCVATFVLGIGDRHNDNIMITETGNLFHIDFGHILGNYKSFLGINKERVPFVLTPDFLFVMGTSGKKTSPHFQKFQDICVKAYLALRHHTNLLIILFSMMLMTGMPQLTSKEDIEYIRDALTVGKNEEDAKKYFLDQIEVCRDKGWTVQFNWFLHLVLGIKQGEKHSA
Description: as §1, §2

[1] = test system: Akt phosphorylated at Thr308 in PC-3 cells; experiment: Cellular assay: phosphorylation of Akt (Thr308) in PC-3 cells, MSD ELISA; assay type: cell-based; conditions: Homo sapiens, PC-3, 1 h, 60 min compound incubation, read-out: IC50 pAkt_Thr308
Description: (§3) Cellular activity of PI3Kβ inhibitors was determined by quantifying the phosphorylation of Akt in PC-3 cells. Akt phosphorylated at Ser473 and Thr308 were measured using an enzyme-linked immunosorbent assay (ELISA; Meso Scale Discovery (MSD), Gaithersburg, Md.) and specific primary antibodies from MSD.
(§4) On day 1, PC3 cells (ATCC #[…]) were seeded into PerkinElmer MW96 plates at 25.000 cells per well, in 75 μl complete culture medium (DMEM high glucose, AQmedia™, D0819, Sigma-Aldrich) containing 10% heat inactivated FCS and incubated at 37° C., […] during 24 hours. On day 2, compound or DMSO (0.3%) was added and cells were further incubated for 60 min at 37° C., 5% CO2 in a total volume of 100 μl of medium.
(§5) The phosphoprotein assay was executed according to vendor instructions in the Phospho-Akt (Ser473) Assay Whole Cell Lysate Kit (MSD #K15100D-3) and the Phospho-Akt (Thr308) Assay Whole Cell Lysate Kit (MSD #K151DYD-3) using the lysis, blocking and wash buffer provided.
(§6) Briefly, at the end of the cell treatment period, media were removed by aspiration and adherent cells were lysed in 50 μl ice-cold lysis buffer. MSD plates are supplied pre-coated with capture antibodies for Phospho-Akt (Ser473 and Thr308). After blocking, lysates from tissue culture plates were added and plates were washed. Then, a solution containing the detection antibody (anti-total Akt conjugated with an electrochemiluminescent compound-MSD Sulfo-tag label) was added. The signals were detected using an MSD SECTOR Imager 6000 and are proportional to the phospho-Akt titres.
(§7) Data were processed. The percentage of inhibition was plotted against the log concentration of test compounds, and the sigmoidal log concentration-effect curve of best fit was calculated by nonlinear regression analysis. From these concentration-response curves, the IC50 values were calculated. Five concentrations were used for curve fitting.

[2] = test system: Akt phosphorylated at Ser473 in PC-3 cells; experiment: Cellular assay: phosphorylation of Akt (Ser473) in PC-3 cells, MSD ELISA; assay type: cell-based; conditions: Homo sapiens, PC-3, 1 h, 60 min compound incubation, read-out: IC50 pAkt_S473
Description: as §3, §4, §5, §6, §7

T1 sequence (P42338 whole entry): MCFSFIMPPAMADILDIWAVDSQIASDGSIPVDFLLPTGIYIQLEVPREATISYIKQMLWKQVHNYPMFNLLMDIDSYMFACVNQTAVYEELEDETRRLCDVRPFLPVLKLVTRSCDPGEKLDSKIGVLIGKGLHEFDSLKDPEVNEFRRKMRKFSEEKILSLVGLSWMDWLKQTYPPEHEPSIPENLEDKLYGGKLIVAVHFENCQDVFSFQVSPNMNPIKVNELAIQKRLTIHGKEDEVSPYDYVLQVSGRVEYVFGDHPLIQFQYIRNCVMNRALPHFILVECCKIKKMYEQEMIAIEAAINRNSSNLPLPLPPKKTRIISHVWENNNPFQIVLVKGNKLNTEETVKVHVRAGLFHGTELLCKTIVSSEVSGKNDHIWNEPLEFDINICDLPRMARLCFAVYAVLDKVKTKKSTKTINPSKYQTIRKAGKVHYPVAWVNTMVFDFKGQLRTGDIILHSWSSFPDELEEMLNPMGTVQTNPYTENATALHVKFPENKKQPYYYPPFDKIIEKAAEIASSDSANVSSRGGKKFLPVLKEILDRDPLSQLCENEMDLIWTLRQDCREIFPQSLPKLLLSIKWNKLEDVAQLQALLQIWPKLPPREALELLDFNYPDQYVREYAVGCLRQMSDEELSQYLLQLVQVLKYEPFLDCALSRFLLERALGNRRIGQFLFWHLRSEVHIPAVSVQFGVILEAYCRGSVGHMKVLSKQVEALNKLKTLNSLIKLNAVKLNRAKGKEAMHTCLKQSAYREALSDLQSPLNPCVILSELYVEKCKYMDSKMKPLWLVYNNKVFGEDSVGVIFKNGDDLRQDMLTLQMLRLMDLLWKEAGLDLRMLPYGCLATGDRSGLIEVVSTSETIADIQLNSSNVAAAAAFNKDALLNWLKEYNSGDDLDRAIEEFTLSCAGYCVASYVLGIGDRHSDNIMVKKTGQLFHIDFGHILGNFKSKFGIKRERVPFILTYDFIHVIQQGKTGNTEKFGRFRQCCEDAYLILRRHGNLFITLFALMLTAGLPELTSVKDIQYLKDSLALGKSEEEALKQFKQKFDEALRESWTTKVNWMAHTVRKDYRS

SMILES: Cc1nc2c(-c3ccn[nH]3)nc(C3=CCOCC3)cn2c1Cc1cccc(C(F)(F)F)c1C [Compound 1]
- melting point: 240 °C
- Kd (PIK3Cβ_h): 1.6 nM
- Kd (MTOR_h): 935 nM
- Kd (PIK3Cδ_h): 69 nM
- Kd (PIK3Cα_h): 288 nM
- Kd (PIK3Cγ_h): 1060 nM
- IC50 [1]: 7 nM
- IC50 [2]: 14 nM

SMILES: Cc1nc2c(C(N)=O)nc(C3=CCOCC3)cn2c1Cc1cccc(C(F)(F)F)c1C [Compound 5]
- melting point: 257 °C
- Kd (PIK3Cβ_h): 4.7 nM
- Kd (MTOR_h): 12300 nM
- Kd (PIK3Cδ_h): 891 nM
- Kd (PIK3Cα_h): 1820 nM
- Kd (PIK3Cγ_h): 6310 nM
- IC50 [1]: ~65 nM
- IC50 [2]: ~87 nM

SMILES: Cc1nc2c(-c3c[nH]cn3)nc(C3=CCOCC3)cn2c1Cc1cccc(C(F)(F)F)c1C [Compound 6]
- melting point: 197 °C
- Kd (PIK3Cβ_h): 5.5 nM
- Kd (MTOR_h): 2170 nM
- Kd (PIK3Cδ_h): 682 nM
- Kd (PIK3Cα_h): 343 nM
- Kd (PIK3Cγ_h): 4700 nM
- IC50 [1]: 59 nM
- IC50 [2]: 185 nM

SMILES: CCOC(=O)Cc1nc2cnc(N3CCOCC3)cn2c1Cc1cccc(C(F)(F)F)c1C [Compound 17]
- melting point: 135 °C

SMILES: Cc1c(Cc2c(CN3CC4(C3)CS(=O)(=O)C4)nc3ccc(N4CCOCC4)cn23)cccc1C(F)(F)F [Compound 33]
- Kd (PIK3Cβ_h): 3 nM
- Kd (MTOR_h): > 30200 nM
- Kd (PIK3Cδ_h): 316 nM
- Kd (PIK3Cα_h): 589 nM
- Kd (PIK3Cγ_h): > 30200 nM
- IC50 [1]: 15 nM
- IC50 [2]: 16 nM

SMILES: Cc1c(Cc2c(CNCCO)nc3ccc(N4CCOCC4)cn23)cccc1C(F)(F)F [Compound 34]
- Kd (PIK3Cβ_h): 9 nM
- Kd (MTOR_h): 23200 nM
- Kd (PIK3Cδ_h): 741 nM
- Kd (PIK3Cα_h): 16900 nM
- Kd (PIK3Cγ_h): > 30200 nM
- IC50 [1]: 70 nM
- IC50 [2]: 110 nM

SMILES: Cc1c(Cc2c(CNCCCO)nc3ccc(N4CCOCC4)cn23)cccc1C(F)(F)F [Compound 35]
- Kd (PIK3Cβ_h): 5.8 nM
- Kd (MTOR_h): 21900 nM
- Kd (PIK3Cδ_h): 575 nM
- Kd (PIK3Cα_h): 22400 nM
- Kd (PIK3Cγ_h): > 30200 nM
- IC50 [1]: 89 nM
- IC50 [2]: 74 nM

SMILES: Cc1c(Cc2c(CN(C)CCO)nc3ccc(N4CCOCC4)cn23)cccc1C(F)(F)F [Compound 36]
- Kd (PIK3Cβ_h): 22 nM
- Kd (MTOR_h): > 30200 nM
- Kd (PIK3Cδ_h): 2140 nM
- Kd (PIK3Cα_h): > 30200 nM
- Kd (PIK3Cγ_h): > 30200 nM
- IC50 [1]: ~132 nM
- IC50 [2]: ~224 nM

SMILES: CC(=O)N(CCO)Cc1nc2ccc(N3CCOCC3)cn2c1Cc1cccc(C(F)(F)F)c1C [Compound 37]
- Kd (PIK3Cβ_h): 20 nM
- Kd (MTOR_h): 24000 nM
- Kd (PIK3Cδ_h): 1440 nM
- Kd (PIK3Cα_h): 10200 nM
- Kd (PIK3Cγ_h): > 30200 nM
- IC50 [1]: ~282 nM
- IC50 [2]: 282 nM

SMILES: Cc1c(Cc2c(CO)nc3c(-c4ccn[nH]4)cc(N4CCOCC4)cn23)cccc1C(F)(F)F [Compound 38]
- Kd (PIK3Cβ_h): 71 nM
- Kd (MTOR_h): 2290 nM
- Kd (PIK3Cδ_h): 2040 nM
- Kd (PIK3Cα_h): 2950 nM
- Kd (PIK3Cγ_h): 4370 nM
- IC50 [1]: > 513 nM
- IC50 [2]: > 513 nM

SMILES: Cc1c(Cl)cccc1Nc1c(CO)nc2ccc(N3CCOCC3)cn12 [Compound 39]
- Kd (PIK3Cβ_h): 0.5 nM
- Kd (MTOR_h): 3980 nM
- Kd (PIK3Cδ_h): 141 nM
- Kd (PIK3Cα_h): 468 nM
- Kd (PIK3Cγ_h): 11200 nM
- IC50 [1]: 28 nM
- IC50 [2]: ~40 nM

SMILES: Cc1c(Cc2c(CN3CC4(C3)CS(=O)(=O)C4)nc3ccc(C4=CCOCC4)cn23)cccc1C(F)(F)F [Compound 40]
- Kd (PIK3Cβ_h): 0.3 nM
- Kd (MTOR_h): 12900 nM
- Kd (PIK3Cδ_h): 44 nM
- Kd (PIK3Cα_h): 302 nM
- Kd (PIK3Cγ_h): > 30200 nM
- IC50 [1]: ~10 nM
- IC50 [2]: 15 nM

SMILES: Cc1c(Cc2c(CO)nc3c(-c4c[nH]cn4)cc(C4=CCOCC4)cn23)cccc1C(F)(F)F [Compound 41]
- Kd (PIK3Cβ_h): 1.1 nM
- Kd (MTOR_h): 200 nM
- Kd (PIK3Cδ_h): 13 nM
- Kd (PIK3Cα_h): 96 nM
- Kd (PIK3Cγ_h): 324 nM
- IC50 [1]: 14 nM
- IC50 [2]: 14 nM

SMILES: Cc1c(Cc2c(CO)nc3c(-c4ccn[nH]4)cc(C4=CCOCC4)cn23)cccc1C(F)(F)F [Compound 42]
- Kd (PIK3Cβ_h): 2.5 nM
- Kd (MTOR_h): 151 nM
- Kd (PIK3Cδ_h): 186 nM
- Kd (PIK3Cα_h): 525 nM
- Kd (PIK3Cγ_h): 1070 nM
- IC50 [1]: ~20 nM
- IC50 [2]: 76 nM

SMILES: Cc1c(Cc2c(CO)nc3c(-c4ncc[nH]4)cc(C4=CCOCC4)cn23)cccc1C(F)(F)F [Compound 43]
- Kd (PIK3Cβ_h): 0.9 nM
- Kd (MTOR_h): 1670 nM
- Kd (PIK3Cδ_h): 35 nM
- Kd (PIK3Cα_h): 585 nM
- Kd (PIK3Cγ_h): 1920 nM
- IC50 [1]: ~59 nM
- IC50 [2]: 52 nM

SMILES: Cc1nc2c(CO)cc(C3=CCOCC3)cn2c1Cc1cccc(C(F)(F)F)c1C [Compound 44]
- Kd (PIK3Cβ_h): 1.7 nM
- Kd (MTOR_h): 17800 nM
- Kd (PIK3Cδ_h): 562 nM
- Kd (PIK3Cα_h): 7240 nM
- Kd (PIK3Cγ_h): 21400 nM
- IC50 [1]: 83 nM
- IC50 [2]: 135 nM

SMILES: Cc1c(Cc2c(CO)nc3c(N)cc(N4CCOCC4)cn23)cccc1C(F)(F)F [Compound 45]
- Kd (PIK3Cβ_h): 91 nM
- Kd (MTOR_h): 18600 nM
- Kd (PIK3Cδ_h): 3470 nM
- Kd (PIK3Cα_h): 14500 nM
- Kd (PIK3Cγ_h): 15800 nM
- IC50 [1]: 166 nM
- IC50 [2]: 145 nM
